We go through 37 molecules from US20220073536A1 (Rigel Pharmaceuticals, Inc., priority 2003, published 2022).

Assay [1] has as its system cultured human mast cells (CHMC). The assay is described as follows: CHMC low cell density IgE activation: tryptase assay. The note with it: IgE activation. It counts as cell-based. An outline of the steps: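 Tryptase release was read from supernatant with a fluorogenic substrate (30 min, room temperature) after anti-IgE challenge of cultured human mast cells (1000–1500 cells/well, low density) for 30 minutes at 37° C.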

For assay [2] the test system is unchanged. The assay is described as follows: CHMC low cell density ionomycin activation: tryptase assay. To be noted: low cell density, 3 pt, read-out: LD Tryptase, CHMC, Iono, 3 pt. It counts as cell-based.
[3] abbreviates: low cell density, 3 pt, read-out: LD Tryptase, CHMC, IgE, 3 pt.
Setting [4] is: low cell density CHMC, tryptase release, 3 pt, read-out: LD Tryptase, CHMC, IgE, 3 pt.
The mark [5] stands for this setting: low cell density CHMC, tryptase release, 8 pt, read-out: LD Tryptase, CHMC, IgE, 8 pt.
[6] abbreviates: low cell density CHMC, tryptase, 3 pt, read-out: LD Tryptase, CHMC, IgE, 3 pt.
The mark [7] stands for this setting: low cell density CHMC, tryptase, 8 pt, read-out: LD Tryptase, CHMC, IgE, 8 pt.
Where [8] appears, read: low cell density, 8 pt, read-out: LD Tryptase, CHMC, IgE, 8 pt.

Structures can show the parent of a compound that is named as a salt.

On to “2-Chloro-N4- (3,5-dichloro-4-methoxyphenyl-5-fluoro-N4-methyl-4-pyrimidineamine [Compound 491]”, for which the IC50 in assay [1] (setting [3]) and in assay [2] was > 10 µM throughout.

With `CNC(=O)COc1cccc(Nc2ncc(F)c(Nc3ccc4c(n3)NC(=O)C(C)(C)O4)n2)c1` [Compound 992, N4-(2,2-Dimethyl-3-oxo-4H-5-pyrid[1,4]oxazin-6-yl)-5-fluoro-N2-[3-(N-methylamino)carbonylmethyleneoxyphenyl]-2,4-pyrimidinediamine (+)-Camphorsulfonic Acid Salt], the IC50 in assay [2] was > 10 µM.

On to “(R)-N2- (3-Chloro-4-methoxyphenyl)-5-fluoro-N4- (2-methyl-3-oxo-2H,4H-benz[1,4]oxazin-6-yl)-2,4-pyrimidinediamine (1R)-(−)-Camphorsulfonic Acid Salt [Compound 212]”, for which the IC50 in assay [1] (setting [4]) and in assay [1] (setting [5]) was < 10 µM in each case.

As for “(R)-N2- (3-Chloro-4-methoxyphenyl)-5-fluoro-N4- (2-methyl-3-oxo-2H,4H-benz[1,4]oxazin-6-yl)-2,4-pyrimidinediamine (1S)-(+)-Camphorsulfonic Acid Salt [Compound 209]”, the IC50 in assay [1] (setting [5]) was < 10 µM.

With “(R)-N2-[3- (N-tert-Butoxycarbonylamino)methylenephenyl]-5-fluoro-N4- (2-methyl-3-oxo-2H,4H-benz[1,4]oxazin-6-yl) [Compound 1277]”, the IC50 in assay [1] (setting [6]) and in assay [1] (setting [7]) was < 10 µM in each case.

“(R,S)-N2- (3,5-Dimethylphenyl)-5-fluoro-N4-(tetrahydrofurano[2,3]-2H-benz[1,4]oxazin-6-yl)-2,4-pyrimidinediamine [Compound 252]”: the IC50 in assay [1] (setting [5]) is < 10 µM.

In the case of “(S)-5-Fluoro-[1- (2-hydroxymethyl)-2-trifluoromethylbenzimidazol-5-yl]-N4- (2-methyl-3-oxo-2H,4H-benz[1,4]oxazin-6-yl)-2,4-pyrimidinediamine [Compound 923]”, in assay [1] (setting [8]), the IC50 is < 10 µM.

As to “(S)-N2-[3- (N-tert-Butoxycarbonylamino)methylenephenyl]-5-fluoro-N4- (2-methyl-3-oxo-2H,4H-benz[1,4]oxazin-6-yl)-2,4-pyrimidinediamine [Compound 1276]”, the IC50 in assay [1] (setting [6]) and in assay [1] (setting [7]) was < 10 µM throughout.

“N2- (2,2-Dimethyl-3-oxo-4H-benz[1,4]oxazin-6-yl)-5-fluoro-N4-(4-[N-[methoxycarbonylmethylene]aminocarbonyl]phenyl)-2,4-pyrimidinediamine [Compound 1331]”: the IC50 in assay [1] (setting [6]) and in assay [1] (setting [7]) was < 10 µM each time.

For “N2- (2-Aminocarbonylphenyl)-N4- (2,2-dimethyl-3-oxo-4H-5-pyrid[1,4]oxazin-6-yl)-5-fluoro-2,4-pyrimidinediamine [Compound 1316]”, the IC50 in assay [1] (setting [6]) was < 10 µM; in assay [1] (setting [7]), > 10 µM.

Turning to “N2- (3,5-Dichloro-4-hydroxyphenyl)-5-fluoro-N4- (4-[N-[methoxycarbonylmethylene]aminocarbonyl]phenyl)-2,4-pyrimidinediamine [Compound 1329]”, the IC50 in assay [1] (setting [7]) is < 10 µM.

On to “N2- (3-Chloro-4-hydroxy-5-methylphenyl)-N4-[3,4-(difluoromethylenedioxy)phenyl]-5-fluoro-2,4-pyrimidinediamine [Compound 567]”, for which the IC50 in assay [1] (low cell density CHMC, tryptase release, 8 point, read-out: LD Tryptase, CHMC, IgE, 8 pt) was < 10 µM.

For “N2- (4-Aminocarbonylphenyl)-5-fluoro-N4- (4-[N-[methoxycarbonylmethylene]aminocarbonyl]phenyl)-2,4-pyrimidinediamine [Compound 1333]”, the IC50 in assay [1] (setting [6]) and in assay [1] (setting [7]) was > 10 µM each time.

On to “N2- (4-Aminocarbonylphenyl)-N4- (2,2-dimethyl-3-oxo-4H-5-pyrid[1,4]oxazin-6-yl)-5-fluoro-2,4-pyrimidinediamine [Compound 1315]”, for which, in assay [1] (setting [6]), the IC50 is < 10 µM.

Turning to “N2-[3,5-Bis (hydroxymethylene)phenyl]-N4- (3,4-dichlorophenyl)-5-fluoro-2,4-pyrimidinediamine [Compound 346]”, the IC50 in assay [1] (setting [7]) is < 10 µM.

As to “N2-[3,5-Bis (hydroxymethylene)phenyl]-N4- (3,4-ethylenedioxyphenyl)-5-fluoro-2,4-pyrimidinediamine [Compound 342]”, the IC50 in assay [1] (setting [7]) was < 10 µM.

Consider “N2-[3,5-Bis (hydroxymethylene)phenyl]-N4- (3-chloro-4-methoxyphenyl)-5-fluoro-2,4-pyrimidinediamine [Compound 345]”, for which the IC50 in assay [1] (setting [7]) was < 10 µM.

As to “N4- (2,2-Dimethyl-3-oxo-4H-5-pyrid[1,4]oxazin-6-yl)-5-fluoro-N2- (3-methoxycarbonylppyrid-2yl)-2,4-pyrimidinediamine [Compound 1314]”, the IC50 in assay [1] (setting [6]) was < 10 µM.

As to “N4- (2,2-Dimethyl-3-oxo-4H-5-pyrid[1,4]oxazin-6-yl)-5-fluoro-N2- (4-methoxycarbonylphenyl)-2,4-pyrimidinediamine [Compound 1313]”, in assay [1] (setting [6]), the IC50 was < 10 µM.

Regarding “N4- (2,2-Dimethyl-3-oxo-4H-5-pyrid[1,4]oxazin-6-yl)-5-fluoro-[1-(2-hydroxymethyl)-2-trifluoromethylbenzimidazol-5-yl]-2,4-pyrimidinediamine [Compound 924]”, the IC50 in assay [1] (setting [8]) is < 10 µM.

As for “N4- (2,2-Dimethyl-3-oxo-4H-5-pyrid[1,4]oxazin-6-yl)-N2- (1-methyl-2-trifluoromethylbenzimidazol-5-yl)-2,4-pyrimidinediamine [Compound 915]”, in assay [1] (setting [8]), the IC50 is < 10 µM.

For “N4- (2,2-Dimethyl-3-oxo-4H-N4-oxo-5-pyrido[1,4]oxazin-6-yl)-5-fluoro-N2- (3,4,5-trimethoxyphenyl)-2,4-pyrimidinediamine [Compound 1340]”, the IC50 in assay [1] (setting [6]) and in assay [1] (setting [7]) was < 10 µM throughout.

As for “N4- (2,2-Dimethyl-3-oxo-4H-benz[1,4]oxazin-6-yl)-5-fluoro-N2-{1-methyl-2-[ (methylsulfonyl)methyl]benzimidazol-5-yl}-2,4-pyrimidinediamine [Compound 967]”, the IC50 in assay [1] (setting [3]) and in assay [1] (setting [8]) was < 10 µM in each case.

Regarding “N4- (2,2-Dimethyl-3-oxo-4H-benz[1,4]oxazin-6-yl)-5-fluoro-[1-(2-hydroxymethyl)-2-trifluoromethylbenzimidazol-5-yl]-2,4-pyrimidinediamine [Compound 922]”, the IC50 in assay [1] (setting [8]) was < 10 µM.

Regarding “N4- (3,4-Dichlorophenyl)-5-fluoro-N2- (4-[N-[methoxycarbonylmethylene]aminocarbonyl]phenyl)-N4-methyl-2,4-pyrimidinediamine [Compound 1348]”, in assay [1] (setting [6]), the IC50 was < 10 µM.

On to “N4- (3,4-Dichlorophenyl)-5-fluoro-N2-[2- (4-morpholinomethyl)-1H-benzimidazol-5-yl]-2,4-pyrimidinediamine [Compound 959]”, for which the IC50 in assay [1] (setting [8]) was < 10 µM.

In the case of “N4- (3,4-Dichlorophenyl)-5-fluoro-[1- (2-hydroxymethyl)-2-trifluoromethylbenzimidazol-5-yl]-2,4-pyrimidinediamine [Compound 920]”, the IC50 in assay [1] (setting [3]) and in assay [1] (setting [8]) was < 10 µM throughout.

Turning to “N4- (3,4-Ethylenedioxyphenyl)-5-fluoro-N2-[3,4-(tetrafluoroethylenedioxy)phenyl]-2,4-pyrimidinediamine [Compound 363]”, the IC50 in assay [1] (setting [6]) is < 10 µM.

As to “N4- (3-Chloro-4-methoxyphenyl)-5-fluoro-[1- (2-hydroxymethyl)-2-trifluoromethylbenzimidazol-5-yl]-2,4-pyrimidinediamine [Compound 921]”, the IC50 in assay [1] (setting [3]) and in assay [1] (setting [8]) was < 10 µM in each case.

For the molecule “N4- (5-Amino-1,2,4-triazol-3-yl)-5-fluoro-N2-[3- (N-methylamino)carbonylmethyleneoxyphenyl]-2,4-pyrimidinediamine [Compound 1251]”, the IC50 in assay [1] (setting [7]) was < 10 µM.

As to “N4- (Aminocarbonylphenyl)-5-fluoro-N2- (4-[N-[methoxycarbonylmethylene]aminocarbonyl]phenyl)-2,4-pyrimidinediamine [Compound 1338]”, the IC50 in assay [1] (setting [6]) and in assay [1] (setting [7]) was < 10 µM in each case.

Regarding “N4- (Cyclopentyl)-5-fluoro-N2- (4-[N-[methoxycarbonylmethylene]aminocarbonyl]phenyl)-2,4-pyrimidinediamine [Compound 1351]”, the IC50 in assay [1] (setting [6]) and in assay [1] (setting [7]) was < 10 µM throughout.

Regarding “N4-[3,4- (Difluoromethylenedioxy)phenyl]-5-fluoro-N2- (3,4,5-trimethoxyphenyl)-2,4-pyrimidinediamine [Compound 561]”, in assay [1] (setting [8]), the IC50 was < 10 µM.

For “N4-[3,4- (Difluoromethylenedioxy)phenyl]-5-fluoro-N2-[2- (N-methylamino)carbonylindol-7-yl]-2,4-pyrimidinediamine [Compound 570]”, in assay [1] (low cell density CHMC, tryptase release, 3 point, read-out: LD Tryptase, CHMC, IgE, 3 pt), the IC50 was < 10 µM.

As to “N4-[3,4- (Difluoromethylenedioxy)phenyl]-N2- (3,5-dimethoxyphenyl)-5-fluoro-2,4-pyrimidinediamine [Compound 562]”, the IC50 in assay [1] (setting [3]) and in assay [1] (setting [8]) was < 10 µM each time.

In the case of “N4-[3,4- (Difluoromethylenedioxy)phenyl]-N2- (3,5-dimethylphenyl)-5-fluoro-2,4-pyrimidinediamine [Compound 563]”, the IC50 in assay [1] (setting [3]) and in assay [1] (setting [8]) was < 10 µM each time.

In the case of “N4-[benzoxathiazin-3 (4H)-one-6-yl]2-chloro-5-fluoro-4-pyrimidineamine [Compound 319]”, the IC50 in assay [1] (setting [4]) is < 10 µM.
